Measurements reported in US20040071747A1, “Cosmetics” (priority 2001, published 2004).

Test: Solubility in water or squalane by visual observation
Assay type: physicochemical
Design: key: ∘: Completely dissolved; x: Separated or precipitated without dissolution
Settings: 25° C.
Method: Solubilityies of 1% by weight of components (1) to (5), and those of 0.01% by weight of components (6) and (7) were examined by visual observation of the dissolving states of the components mixed at 25° C. with water or squalane.

Row | Compound | Solubility in Squalane (1% by weight) | Solubility in Water (1% by weight) | Solubility in Squalane (0.01% by weight) | Solubility in Water (0.01% by weight)
1 | CC1(C)[C@@H](O[C@H]2O[C@H](C(=O)[O-])[C@@H](O)[C@H](O)[C@H]2O[C@@H]2O[C@H](C(=O)[O-])[C@@H](O)[C@H](O)[C@H]2O)CC[C@]2(C)[C@H]3C(=O)C=C4[C@@H]5C[C@@](C)(C(=O)O)CC[C@]5(C)CC[C@@]4(C)[C@]3(C)CC[C@@H]12.[K+].[K+] [Dipotassium Glycyrrhizinate] | x | ∘ |  | 
2 | Cc1ccc(Nc2ccc(O)c3c2C(=O)c2ccccc2C3=O)c(S(=O)(=O)[O-])c1.[Na+] [Purple No.401] |  |  | x | ∘
3 | CCN(Cc1cccc(S(=O)(=O)[O-])c1)c1ccc(C(=C2C=CC(=[N+](CC)Cc3cccc(S(=O)(=O)[O-])c3)C=C2)c2ccccc2S(=O)(=O)[O-])cc1.[Na+].[Na+] [Blue No.1] |  |  | x | ∘
